In one series the target is CYP2C19 (Homo sapiens, UniProt P33261). Kind of series: Cytochrome p450 inhibition assessment, CYP2C19. The following applies: estimated. Format: in vitro ADME. The protocol: (§1) The ability of test compounds to inhibit five major human cytochrome p450 isozymes was evaluated. Cytochrome p450 inhibition assays were performed on 96-well microtiter assay plates according to the protocols described in Gentest P450 inhibition instruction manuals. The assays were performed in duplicate at 8 concentrations with the upper concentration of 100 μM followed by a 1:3 serial dilution. Reactions were initiated by the addition of 100 μL of enzyme/substrate mix to 100 μL of cofactor/serial dilution mix, and terminated by addition of 75 μL of a 4:1 acentonitrile: 0.5 M Tris base solution or by 2N NaOH for CYP3A4/DBF. Fluorescence was measured using a fluorescence plate reader (FLUOstar model 403, BMG Lab Technologies, Durham, N.C.). For reactions with inhibition greater than 50%, IC50 values were determined by fitting the data to the Hill equation using software GraphPad Prism (Version 4.02, GraphPad Software, San Diego, Calif.).
Chain of CYP2C19 (P33261 whole entry): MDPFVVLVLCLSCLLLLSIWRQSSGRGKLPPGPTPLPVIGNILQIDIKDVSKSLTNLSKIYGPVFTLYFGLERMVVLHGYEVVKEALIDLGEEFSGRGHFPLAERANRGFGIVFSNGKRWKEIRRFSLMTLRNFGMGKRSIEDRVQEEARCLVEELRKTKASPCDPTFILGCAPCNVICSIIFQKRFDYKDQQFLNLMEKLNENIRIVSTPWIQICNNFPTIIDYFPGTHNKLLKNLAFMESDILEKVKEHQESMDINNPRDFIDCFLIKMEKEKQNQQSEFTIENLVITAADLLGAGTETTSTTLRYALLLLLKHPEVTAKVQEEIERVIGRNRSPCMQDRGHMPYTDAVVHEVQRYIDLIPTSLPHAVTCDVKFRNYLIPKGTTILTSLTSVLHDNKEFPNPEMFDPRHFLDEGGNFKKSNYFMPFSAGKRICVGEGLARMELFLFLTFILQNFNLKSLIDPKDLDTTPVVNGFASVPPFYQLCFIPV

A further series deals with 2C9 (Homo sapiens, UniProt P11712). Kind of series: Cytochrome p450 inhibition assessment, 2C9. The class given is in vitro ADME. The following applies: concentration range tested, upper 100 μM. The protocol: as §1
Chain of 2C9 (P11712 whole entry): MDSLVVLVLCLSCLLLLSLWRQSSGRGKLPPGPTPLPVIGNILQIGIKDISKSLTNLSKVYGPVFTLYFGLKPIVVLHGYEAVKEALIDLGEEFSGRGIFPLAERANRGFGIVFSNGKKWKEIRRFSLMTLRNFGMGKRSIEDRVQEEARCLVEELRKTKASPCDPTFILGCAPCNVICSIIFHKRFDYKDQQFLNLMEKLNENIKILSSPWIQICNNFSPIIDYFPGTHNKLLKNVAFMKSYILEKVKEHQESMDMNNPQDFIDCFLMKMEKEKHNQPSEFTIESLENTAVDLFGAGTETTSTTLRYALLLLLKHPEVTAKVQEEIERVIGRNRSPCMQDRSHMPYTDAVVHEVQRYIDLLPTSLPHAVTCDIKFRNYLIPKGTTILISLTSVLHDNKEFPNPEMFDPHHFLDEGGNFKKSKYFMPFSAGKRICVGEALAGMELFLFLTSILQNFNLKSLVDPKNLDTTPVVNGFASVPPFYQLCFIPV
Series [1] deals with pawlick response induced by capsaicin. The series is described as follows: Paw lick assay (capsaicin challenge). Particulars: 30 mg/kg, at least 30 minutes prior to testing; FIG. 5. Format: in vivo. How it is done:
This assay was performed to test the ability of Compound 18 to inhibit the response to capsaicin challenge.
Animals were acclimatized at least 2 days prior to testing by placing them in a behavioral chamber for one hour. On the day of testing, animals were trained for 30-60 minutes prior to dosing. Animals were dosed with 30 mg/kg of Compound 18 at least 30 minutes prior to testing and then placed in behavioral chambers for acclimatization. Animals were then placed into a falcon tube restrainer and injected with a 0.16 mg/ml capsaicin solution (or vehicle) into the plantar surface of their paw. Animals were then returned to the behavior chamber and monitored for paw licking behavior (including paw and leg licking behavior) over the next 5 minute interval.

Another series concerns the target CYP2D6 (Homo sapiens, UniProt P10635). The series is described as follows: Cytochrome p450 inhibition assessment, CYP2D6. The class given is in vitro ADME. Particulars: concentration range tested, upper 100 μM. The protocol: as §1
A short description of series [2]: Aqueous equilibrium solubility. The class given is physicochemical. The following applies: room temperature. The protocol: Equilibrium solubility was measured in a pH 2.0 isotonic solution of NaCl/HCl and a pH 7.4 aqueous buffer. The pH 2.0 solution was prepared by adjusting the saline solution to a pH of 2.0 using HCl. The pH 7.4 buffer was prepared by adjusting the pH of a 0.07 M solution of NaH2PO4 to pH 7.4 with 10 N NaOH. […] At least 1 mg of powder was combined with 1 ml of buffer to make ≧1 mg/ml mixture. This sample was shaken for ≧2 hours and left to stand overnight at room temperature. The samples were then filtered through a 0.45-μm Nylon syringe filter that was first saturated with the sample. The filtrate was sampled twice, consecutively. All samples were assayed by LC/MS using electrospray ionization. The typical range of the assay is greater than 1 mg/mL to less than 0.0002 mg/mL, depending on analytical sensitivity.

Series [3] concerns capsaicin induced plasma extravasation. Kind of series: Plasma extravasation study (capsaicin applied to ear, Evans Blue). The class given is in vivo, rat. The following applies: rats, dose of 30 mg/kg, dosed two hours before Evans Blue; FIG. 2. The protocol: The density of TRPV1 expression is enhanced during an inflammatory condition. Therefore TRPV1 antagonists have been investigated in three different models of inflammatory pain, namely plasma extravasation, paw lick assay, and thermal hyperalgesia.
Sprague-Dawley male rats obtained from Charles River, San Diego, Calif. were dosed with compound 18. Two hours later, they were injected with Evan's Blue (10 ml/kg or 150 μl). Thirty minutes after I.V. injection, 10 μl of 25 mM capsaicin in 100% ethanol was applied to the left ear of the animal, followed by 10 μl vehicle (100% EtOH) to the right ear of the […]. Fifteen minutes later, the animal was sacrificed using CO2. Each ear was removed, placed into labeled tubes and weighed. The dye was then extracted from the ears by drying the ears at 55-60° overnight. The following day, 250 μl formamide was added and left at 55-60° overnight.
An Evans blue standard curve was first generated ([…]). Samples (with ears) were spun for at least 1 minute before addition of 100 μl of each sample to appropriate wells. Samples were analyzed in a plate holder by SOFTmax PRO. Standards were graphed to generate a standard curve and then used to extrapolate Evans Blue concentrations of experimental samples.

In the next series the target is T1, VR1 receptor (Rattus norvegicus, UniProt O35433).
T1 construct: Dorsal root ganglion (DRG) neurons were recovered from either neonatal or adult rats; endogenous in cells; host or cells: primary rat dorsal root ganglion neurons
T1 sequence (O35433 whole entry): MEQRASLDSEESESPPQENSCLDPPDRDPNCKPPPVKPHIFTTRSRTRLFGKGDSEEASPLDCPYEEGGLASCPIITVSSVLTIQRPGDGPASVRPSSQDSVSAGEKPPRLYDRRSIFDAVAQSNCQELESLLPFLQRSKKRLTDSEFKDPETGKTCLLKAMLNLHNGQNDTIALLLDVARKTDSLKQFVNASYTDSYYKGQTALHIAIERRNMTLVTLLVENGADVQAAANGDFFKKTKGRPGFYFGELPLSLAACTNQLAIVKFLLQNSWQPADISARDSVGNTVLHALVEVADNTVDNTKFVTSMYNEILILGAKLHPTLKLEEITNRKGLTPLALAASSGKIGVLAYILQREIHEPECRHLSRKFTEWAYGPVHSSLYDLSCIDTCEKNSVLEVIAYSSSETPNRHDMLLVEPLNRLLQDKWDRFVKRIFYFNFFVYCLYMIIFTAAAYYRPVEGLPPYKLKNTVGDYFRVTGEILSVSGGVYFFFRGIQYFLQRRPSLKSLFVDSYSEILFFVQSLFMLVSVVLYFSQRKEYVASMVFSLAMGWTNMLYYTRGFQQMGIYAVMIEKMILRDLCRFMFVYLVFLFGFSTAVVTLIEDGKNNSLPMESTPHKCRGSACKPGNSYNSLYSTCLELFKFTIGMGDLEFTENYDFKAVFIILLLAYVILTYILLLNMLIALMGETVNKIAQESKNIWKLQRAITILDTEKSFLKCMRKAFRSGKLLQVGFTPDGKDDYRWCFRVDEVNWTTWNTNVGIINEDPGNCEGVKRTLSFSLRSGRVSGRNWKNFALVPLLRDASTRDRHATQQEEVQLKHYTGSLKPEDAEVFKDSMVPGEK
Kind of series: Whole-cell patch clamp electrophysiology, capsaicin induced current in DRG neurons. Format: cell-based. The protocol: Dorsal root ganglion (DRG) neurons were recovered from either neonatal or adult rats and plated onto poly-D-lysine coated glass coverslips. The plated neurons were transferred into a chamber to allow drug solutions to be added to the cells using a computer-controlled solenoid-valve based perfusion system. The cells were imaged using standard DIC optics. Cells were patched using finely-pulled glass electrodes. Voltage-clamp electrophysiology experiments were carried out using an Axon Instruments Multiclamp amplified controlled by pCLAMP8 software.
The cells were placed into a whole-cell voltage clamp and help at a voltage of −80 mV while monitoring the membrane current in gap-free recording mode. 500 nM capsaicin was added for 30 seconds as a control. Test compounds at various concentrations at ranging from (10-1000 nM) were added to the cells for 1 minute prior to a 30 second capsaicin application. Differences between control experiments and drug positive capsaicin experiments were used to determine the efficacy of each test compound. All compounds that inhibited capsaicin induced current greater than 50% were considered positives.
On the technique in general: Patch clamp records ionic current or voltage across a cell membrane.

Each structure is given as a SMILES string.

Chain of CYP2D6 (P10635 whole entry): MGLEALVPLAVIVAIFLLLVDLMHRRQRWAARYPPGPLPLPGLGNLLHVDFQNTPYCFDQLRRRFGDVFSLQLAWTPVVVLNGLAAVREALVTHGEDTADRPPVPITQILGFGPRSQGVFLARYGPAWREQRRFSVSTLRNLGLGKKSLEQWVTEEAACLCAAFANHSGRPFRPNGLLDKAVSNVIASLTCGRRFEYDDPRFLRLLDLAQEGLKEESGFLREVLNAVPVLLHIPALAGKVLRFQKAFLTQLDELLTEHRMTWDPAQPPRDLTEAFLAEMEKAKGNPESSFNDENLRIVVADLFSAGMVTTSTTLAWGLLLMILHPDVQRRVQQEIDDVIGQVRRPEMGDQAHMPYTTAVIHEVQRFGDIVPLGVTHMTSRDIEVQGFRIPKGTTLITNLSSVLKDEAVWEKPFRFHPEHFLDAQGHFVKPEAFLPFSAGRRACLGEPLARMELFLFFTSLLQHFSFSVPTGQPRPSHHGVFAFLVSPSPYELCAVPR

One may read the IC50 as the midpoint of a concentration-inhibition curve. What is called thermodynamic solubility is the concentration in solution at equilibrium with solid. Usually inhibition stands for the percentage by which the read-out fell short of the control. A higher inhibition goes with a response far below the control. Take `O=C(Nc1ccc(C(F)(F)F)cc1)c1ccc(-c2ncccc2Cl)cc1` [Compound 18, 4-(3-Chloropyridin-2-yl)-N-(4-trifluoromethyl-phenyl)benzamide]: the IC50 on CYP2C19 was 26.9 µM. The “inhibition of 2C9 activity” value at 2C9 was “did not significantly inhibit”. Also, the “pawlick response induced by treatment with capsaicin” value in series [1] is “significantly inhibited”. For the same molecule, the “inhibition of CYP2D6 activity” value at CYP2D6 was “did not significantly inhibit”. In addition, in series [2] (pH 2.0 isotonic NaCl/HCl solution, simulated gastric fluid, thermodynamic from solid, pH 2.0 isotonic NaCl/HCl), the thermodynamic solubility was under 0.2 µg/mL. In addition, the equilibrium solubility entry in series [2] (pH 7.4 aqueous buffer) is “low solubility”. The “capsaicin induced plasma extravasation” value in series [3] is reported as “significantly blocks”. At VR1 receptor (50 nM, 100 nM and 250 nM), the “dose response of inhibiting a capsaicin induced calcium ion influx (FIG. 3)” value is recorded as “increasing effectiveness”. For the same molecule, the inhibition at 0.1 µM on VR1 receptor (DRG neuron, 100 nM compound, treatment time 20 seconds, 500 nM capsaicin, rat DRG neurons, -80 mV) was under 75%.

Source of the values: US20050197364A1, “Amide compounds as ion channel ligands and uses thereof” (priority 2003, published 2005).
